Measured values as given in patent US8580811B2 (Ligand Pharmaceuticals Incorporated, priority 2005, dated 2013).

Target: T1, human AR (Homo sapiens, UniProt P10275)
T1 construct: expressed in transfected cells; host or cells: COS-1 cells
T1 sequence (P10275 1-920): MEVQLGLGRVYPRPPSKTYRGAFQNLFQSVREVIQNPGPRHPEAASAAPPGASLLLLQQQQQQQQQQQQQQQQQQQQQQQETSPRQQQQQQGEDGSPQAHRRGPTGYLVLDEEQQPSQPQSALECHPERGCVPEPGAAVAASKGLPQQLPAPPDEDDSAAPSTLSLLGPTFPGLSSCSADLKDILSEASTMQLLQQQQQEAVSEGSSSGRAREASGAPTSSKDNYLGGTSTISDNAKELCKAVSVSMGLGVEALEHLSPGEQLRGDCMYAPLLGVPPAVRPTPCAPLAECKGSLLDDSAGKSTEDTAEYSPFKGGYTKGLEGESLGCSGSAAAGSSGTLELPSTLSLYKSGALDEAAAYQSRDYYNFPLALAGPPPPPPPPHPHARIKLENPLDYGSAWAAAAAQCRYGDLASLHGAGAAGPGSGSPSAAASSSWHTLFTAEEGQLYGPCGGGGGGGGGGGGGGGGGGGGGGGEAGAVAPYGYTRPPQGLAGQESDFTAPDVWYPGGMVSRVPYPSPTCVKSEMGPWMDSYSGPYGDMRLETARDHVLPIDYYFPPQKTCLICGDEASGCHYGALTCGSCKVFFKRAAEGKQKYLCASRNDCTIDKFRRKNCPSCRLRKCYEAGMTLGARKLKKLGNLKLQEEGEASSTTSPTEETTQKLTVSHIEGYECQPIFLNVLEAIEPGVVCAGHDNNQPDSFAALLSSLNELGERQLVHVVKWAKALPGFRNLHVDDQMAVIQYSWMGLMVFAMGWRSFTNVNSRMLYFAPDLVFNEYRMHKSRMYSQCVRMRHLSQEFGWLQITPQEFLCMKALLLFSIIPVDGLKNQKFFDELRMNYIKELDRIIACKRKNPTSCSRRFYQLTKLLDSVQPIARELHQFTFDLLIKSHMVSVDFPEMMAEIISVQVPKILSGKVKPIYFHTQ
Assay: IR Binding Assay: whole cell competitive binding of test compounds against 3H-DHT in COS-1 cells transfected with pRShAR
Details: not given
Experimental: For the whole cell binding assay, COS-1 cells in 96-well microtiter plates including DMEM-10% FBS were transfected as described above with the following plasmid DNA: pRShAR (2 ng/well), pRS-β-Gal (50 ng/well) and pGEM (48 ng/well). Six hours after transfection, media was removed, the cells were washed with PBS and fresh media was added. The next day, the media was changed to DMEM-serum free to remove any endogenous ligand that might be complexed with the receptor in the cells.
After 24 hours in serum-free media, either a saturation analysis to determine the Kd for tritiated dihydrotestosterone (^3H-DHT) on human AR or a competitive binding assay to evaluate the ability of test compounds to compete with ^3H-DHT for AR was performed. […] For the competitive binding assay, media including 1 nM ^3H-DHT and test compounds in concentrations ranging from 10^−10 to 10^−6 M were added to the cells. Three replicates were used for each sample. After three hours at 37° C., an aliquot of the total binding media at each concentration of ^3H-DHT was removed to estimate the amount of free ^3H-DHT. The remaining media was removed, the cells were washed three times with PBS to remove unbound ligand, and cells were lysed with a Triton X-100-based buffer. The lysates were assayed for amount of bound ^3H-DHT and β-Gal activity using a scintillation counter or spectrophotometer, respectively.
For the saturation analyses, the difference between the total binding and the nonspecific binding, normalized by the β-Gal rate, was defined as specific binding. The specific binding was evaluated by Scatchard analysis to determine the Kd for ^3H-DHT. See e.g., D. Rodbard, “Mathematics and statistics of ligand assays: an illustrated guide” In: J. Langon and J. J. Clapp, eds., Ligand Assay, Masson Publishing U.S.A., Inc., New York, pp. 45-99, (1981), the disclosure of which is herein incorporated by reference. For the competition studies, the data was plotted as the amount of ^3H-DHT (% of control in the absence of test compound) remaining over the range of the dose-response curve for a given compound. […] The Ki values were determined by application of the Cheng-Prusoff equation to the IC50 values, where:
[formula] After correcting for non-specific binding, IC50 values were determined. […] The IC50 value was determined graphically from a log-logit plot of the data. The Ki values were determined by application of the Cheng-Prusoff equation to the IC50 values, the labeled ligand concentration and the Kd of the labeled ligand. see e.g., Cheng, Y. C. and Prusoff, W. H. Biochem. Pharmacol. 22:3099 (1973).

Structure (SMILES)	Ki [nM]
Cc1c(CCCCl)c2c3c(Cl)cc(=O)[nH]c3ccc2n1CC(F)(F)C(F)(F)F [Compound 269, 9-Chloro-1-(3-chloropropyl)-2-methyl-3-(2,2,3,3,3-pentafluoropropyl)-3,6-dihydro-pyrrolo[3,2-f]quinolin-7-one]	> 10
CC1c2c(ccc3[nH]c(=O)cc(Cl)c23)N(CC(F)(F)F)C1c1ccc(C(F)(F)F)cc1 (racemic) [Compound 147, (±)-9-Chloro-1-methyl-2-(4-trifluoromethyl-phenyl)-3-(2,2,2-trifluoroethyl)-1,2,3,6-tetrahydro-pyrrolo[3,2-f]quinolin-7-one]	> 10
CCc1c(C)c2c3c(Cl)cc(=O)[nH]c3ccc2n1CC(O)CO (stereo not drawn) [Compound 297, 9-Chloro-3-(2,3-dihydroxypropyl)-2-ethyl-1-methyl-3,6-dihydro-pyrrolo[3,2-f]-quinolin-7-one]	> 10
COc1ccc(C2C(C)c3c(ccc4[nH]c(=O)cc(Cl)c34)N2CC(F)(F)F)cc1 (racemic) [Compound 148, (±)-9-Chloro-2-(4-methoxy-phenyl)-1-methyl-3-(2,2,2-trifluoroethyl)-1,2,3,6-tetrahydro-pyrrolo[3,2-f]quinolin-7-one]	5 to 10
CC1c2c(ccc3[nH]c(=O)cc(Cl)c23)N(CC(F)(F)F)C1c1ccc(F)cc1 (racemic) [Compound 149, (±)-9-Chloro-2-(4-fluoro-phenyl)-1-methyl-3-(2,2,2-trifluoroethyl)-1,2,3,6-tetrahydro-pyrrolo[3,2-f]quinolin-7-one]	5 to 10
COc1ccc(-c2c(C)c3c4c(Cl)cc(=O)[nH]c4ccc3n2CC(F)(F)F)cc1 [Compound 197, 9-Chloro-2-(4-methoxyphenyl)-1-methyl-3-(2,2,2-trifluoroethyl)-3,6-dihydro-pyrrolo[3,2-f]-quinolin-7-one]	< 5
Cc1c(-c2nccs2)n(C[C@H](O)C(F)(F)F)c2ccc3[nH]c(=O)cc(Cl)c3c12 [Compound 276, (S)-9-Chloro-1-methyl-2-(1,3-thiazol-2-yl)-3-(3,3,3-trifluoro-2-hydroxy-propyl)-3,6-dihydro-pyrrolo[3,2-f]quinolin-7-one]	> 10
Cc1c(CO)n(CC(F)(F)F)c2ccc3[nH]c(=O)cc(Cl)c3c12 [Compound 230, 9-Chloro-2-hydroxymethyl-1-methyl-3-(2,2,2-trifluoro-ethyl)-3,6-dihydro-pyrrolo[3,2-f]-quinolin-7-one]	> 10
CCCN1c2ccc3[nH]c(=O)cc(Cl)c3c2C(C)C1C (racemic) [Compound 137, (±)-9-Chloro-1,2-dimethyl-3-propyl-1,2,3,6-tetrahydro-pyrrolo[3,2-f]quinolin-7-one]	< 5
CC1c2c(ccc3[nH]c(=O)cc(Cl)c23)N(CC(F)(F)C(F)(F)C(F)(F)F)C1C (racemic) [Compound 168, (±)-9-Chloro-1,2-dimethyl-3-(2,2,3,3,4,4,4-heptafluorobutyl)-1,2,3,6-tetrahydro-pyrrolo[3,2-f]quinolin-7-one]	> 10
O=c1cc(Cl)c2c3c(ccc2[nH]1)N(CC(F)(F)F)[C@@H]1CCC[C@H]31 [Compound 162, (+)-9-Chloro-3-(2,2,2-trifluoroethyl)-1,2-trimethylene-1,2,3,6-tetrahydropyrrolo[3,2-f]quinolin-7-one]	< 5
CC1c2c(ccc3[nH]c(=O)cc(Cl)c23)N(CC(F)(F)F)C1c1cccc([N+](=O)[O-])c1 (racemic) [Compound 154, (±)-9-Chloro-1-methyl-2-(3-nitrophenyl)-3-(2,2,2-trifluoroethyl)-1,2,3,6-tetrahydro-pyrrolo[3,2-f]quinolin-7-one]	> 10
CC1c2c(ccc3[nH]c(=O)cc(Cl)c23)N(CC(F)(F)C(F)(F)F)C1C (racemic) [Compound 167, (±)-9-Chloro-1,2-dimethyl-3-(2,2,3,3,3-pentafluoropropyl)-1,2,3,6-tetrahydro-pyrrolo[3,2-f]-quinolin-7-one]	< 5
Cc1c(C=O)c2c3c(Cl)cc(=O)[nH]c3ccc2n1CCO [Compound 192, 9-Chloro-3-(2-hydroxy-ethyl)-2-methyl-7-oxo-6,7-dihydro-3H-pyrrolo[3,2-f]quinoline-1-carbaldehyde]	> 10
Cc1c(C)n(CC(F)(F)Cl)c2ccc3[nH]c(=O)cc(C(F)(F)F)c3c12 [Compound 220, 1,2-Dimethyl-3-(2-chloro-2,2-difluoroethyl)-9-trifluoromethyl-3,6-dihydro-pyrrolo[3,2-f]-quinolin-7-one]	< 5
Cc1c(C(F)(F)F)n(CC(F)(F)F)c2ccc3[nH]c(=O)cc(Cl)c3c12 [Compound 229, 9-Chloro-1-methyl-3-(2,2,2-trifluoro-ethyl)-2-trifluoromethyl-3,6-dihydro-pyrrolo[3,2-f]-quinolin-7-one]	< 5
Cc1c(-c2cccc(Br)c2)n(CC(F)(F)F)c2ccc3[nH]c(=O)cc(Cl)c3c12 [Compound 198, 2-(3-Bromophenyl)-9-Chloro-1-methyl-3-(2,2,2-trifluoroethyl)-3,6-dihydro-pyrrolo[3,2-f]-quinolin-7-one]	> 10
CC1c2c(ccc3[nH]c(=O)cc(Cl)c23)N(CCO)C1C (racemic) [Compound 139, (±)-9-Chloro-1,2-dimethyl-3-(2-hydroxyethyl)-1,2,3,6-tetrahydro-pyrrolo[3,2-f]-quinolin-7-one]	> 10
C=CCn1c(C)c(C)c2c3c(C(F)(F)F)cc(=O)[nH]c3ccc21 [Compound 236, 3-Allyl-1,2-dimethyl-9-trifluoromethyl-3,6-dihydro-pyrrolo[3,2-f]quinolin-7-one]	< 5
Cc1c(C)n(CCCO)c2ccc3[nH]c(=O)cc(C(F)(F)F)c3c12 [Compound 249, 1,2-Dimethyl-3-(3-hydroxypropyl)-9-trifluoromethyl-3,6-dihydro-pyrrolo[3,2-f]quinolin-7-one]	< 5
CC1c2c(ccc3[nH]c(=O)cc(Cl)c23)N(CC(F)(F)F)C1c1ccc(Cl)cc1 (racemic) [Compound 152, (±)-9-Chloro-2-(4-chlorophenyl)-1-methyl-3-(2,2,2-trifluoroethyl)-1,2,3,6-tetrahydro-pyrrolo[3,2-f]quinolin-7-one]	> 10
CCc1c(C)c2c3c(C(F)(F)F)cc(=O)[nH]c3ccc2n1CC(O)C(F)(F)F (racemic) [Compound 247, (±)-2-Ethyl-1-methyl-3-(3,3,3-Trifluoro-2-hydroxy-propyl)-9-trifluoromethyl-3,6-dihydro-pyrrolo[3,2-f]quinolin-7-one]	< 5
Cc1c(-c2ncco2)n(CC(F)(F)F)c2ccc3[nH]c(=O)cc(Cl)c3c12 [Compound 257, 9-Chloro-1-methyl-2-(2-oxazolyl)-3-(2,2,2-trifluoroethyl)-3,6-dihydro-pyrrolo[3,2-f]-quinolin-7-one]	< 5

Same assay, conditions: competition with 1 nM 3H-DHT, transfected COS-1 cells, 3 h at 37° C., Cheng-Prusoff from IC50; read-out: Ki

Structure (SMILES)	Ki [nM]
CC(=O)c1[nH]c2ccc3[nH]c(=O)cc(Cl)c3c2c1C [Compound 121, 2-Acetyl-9-chloro-1-methyl-3,6-dihydro-pyrrolo[3,2-f]quinolin-7-one]	> 10
